Measured values published in the NIST ThermoML archive (doi:10.1007/s10765-012-1371-1).

Experiment: xn = mol fraction of the nth substance listed
Details: 101 kPa, Liquid

CCCCOCC [butyl ethyl ether] + CCCCCl
viscosity [mPa·s]
Details | 283.15 K | 288.15 K | 293.15 K | 298.15 K | 303.15 K | 308.15 K | 313.15 K
x2 = 0 | 0.4796 | 0.4509 | 0.4242 | 0.399 | 0.3756 | 0.356 | 0.3416
x2 = 0.0515 | 0.4815 | 0.4523 | 0.4254 | 0.4002 | 0.3771 | 0.3576 | 0.3426
x2 = 0.1016 | 0.4832 | 0.4536 | 0.4265 | 0.4014 | 0.3785 | 0.359 | 0.3435
x2 = 0.2008 | 0.4862 | 0.4561 | 0.4286 | 0.4036 | 0.3812 | 0.3618 | 0.3452
x2 = 0.3003 | 0.489 | 0.4583 | 0.4307 | 0.4058 | 0.3839 | 0.365 | 0.3473
x2 = 0.4002 | 0.4914 | 0.4604 | 0.4326 | 0.408 | 0.3868 | 0.368 | 0.3493
x2 = 0.5014 | 0.4934 | 0.4623 | 0.4345 | 0.4102 | 0.3895 | 0.3712 | 0.3514
x2 = 0.6023 | 0.4951 | 0.4641 | 0.4364 | 0.4123 | 0.3925 | 0.3744 | 0.3537
x2 = 0.7003 | 0.4965 | 0.4657 | 0.4381 | 0.4145 | 0.3954 | 0.3777 | 0.3559
x2 = 0.8004 | 0.4977 | 0.4672 | 0.4398 | 0.4167 | 0.3985 | 0.381 | 0.3585
x2 = 0.9006 | 0.4986 | 0.4687 | 0.4416 | 0.4191 | 0.4016 | 0.3846 | 0.3612
x2 = 0.9502 | 0.4989 | 0.4694 | 0.4424 | 0.4201 | 0.4033 | 0.3866 | 0.3627
